The text below walks through data of patent EP0134302A1, “Pharmaceutical compositions for treating resistant bacteria including anaerobes” (Bristol-Myers Company, priority 1983, dated 1985).

Values after ≈ are worked out from the molar mass of the structure shown. Values joined by “and” are separate entries in the source; they are usually repeats but may differ in a detail not shown here. Equal values may be shown once. Read-outs that look alike come from different tables or passages of the source.

Data set [1] can be described thus: Blood concentrations of BL-P 2013 after oral administration. Type of data set: in vivo. Particulars: mice; oral administration of doses of 25 to 100 mg./kg. of body weight.
The subject of the next data set is Enterobacter cloacae. Description: microbe, parasite or virus in culture. It is filed as cell-based.
The test system of another data set is Providencia rettgeri. The data set can be described thus: microbe, parasite or virus in culture. It is filed as cell-based.
The test system of a further data set is Providencia stuartii. Description: microbe, parasite or virus in culture. Type of data set: cell-based.
For a further data set, the system named is P. aeruginosa. Description: microbe, parasite or virus in culture. It is filed as cell-based. Particulars: Pseudomonas aeruginosa.
The subject of the next data set is Proteus vulgaris. Description: microbe, parasite or virus in culture. Type of data set: cell-based.
A further data set deals with Clostridium perfringens. Description: microbe, parasite or virus in culture. It is filed as cell-based.
In another data set the test system is Enterobacter aerogenes. The data set can be described thus: microbe, parasite or virus in culture. It is filed as cell-based. The settings on record: Klebsiella aerogenes.
In the next data set the test system is Morganella morganii. The data set can be described thus: microbe, parasite or virus in culture. It is filed as cell-based.
The next data set concerns C. freundii. The data set can be described thus: microbe, parasite or virus in culture. It is filed as cell-based.
Another data set concerns Bacteroides fragilis. The data set can be described thus: microbe, parasite or virus in culture. Type of data set: cell-based.
The subject of a further data set is Serratia marcescens. Description: microbe, parasite or virus in culture. Type of data set: cell-based.
In the next data set the test system is S. aureus. The data set can be described thus: microbe, parasite or virus in culture. It is filed as cell-based.
In the next data set the test system is B. fragilis. Particulars: cited from earlier work.
Where [2] appears, read: Table 1, C. perfringens, 3 strains (first group), geometric mean, 2 tests, BL-P 2013 as K salt.
Where [3] appears, read: Table 1, C. perfringens, 3 strains (second group), geometric mean, 2 tests, BL-P 2013 as K salt.
Setting [4] is: Table 1, C. perfringens, 8 strains, geometric mean, 2 tests, BL-P 2013 as K salt.
[5] abbreviates: Table 3, C. perfringens, 1 strain.
The mark [6] stands for this setting: Table 3, C. perfringens, 2 strains, geometric mean.
The mark [7] stands for this setting: Table 3, C. perfringens, 4 strains, geometric mean.
[8] abbreviates: Table 3, C. perfringens, 6 strains, geometric mean.

As to `CC(C)(C)C(=O)OCOC(=O)[C@@H]1N2C(=O)C[C@H]2S(=O)(=O)[C@@]1(C)CCl`, the “blood concentrations of BL-P 2013” value in [1] is on record as “Operative blood concentrations”.

Turning to `C[C@]1(CCl)[C@H](C(=O)OC2OC(=O)c3ccccc32)N2C(=O)C[C@H]2S1(=O)=O` (stereo partly shown), the “blood concentrations of BL-P 2013” value in data set [1] is given as “Operative blood concentrations”.

As for `C[C@]1(CCl)[C@H](C(=O)O)N2C(=O)C[C@H]2S1(=O)=O` [BL-P 2013], the “blood concentrations of BL-P 2013” value in [1] is “Operative blood concentrations”. Moreover, the MIC in the data set on Enterobacter cloacae, against Providencia rettgeri, with Providencia stuartii, against P. aeruginosa, in the data set on Proteus vulgaris and with Clostridium perfringens (setting [2]) was > 125 µg/mL each time. In addition, the MIC in the data set with Clostridium perfringens (setting [3]) was 89 µg/mL; in the data set on Clostridium perfringens (setting [4]) it was > 120 µg/mL; in the data set with Clostridium perfringens (setting [5]) it was > 32 µg/mL; in the data set on Clostridium perfringens (setting [6]), > 32 µg/mL; against Clostridium perfringens (setting [7]) it was 27 µg/mL (≈ 101 µM); in the data set with Clostridium perfringens (setting [8]) it was > 32 µg/mL. The MIC was > 125 µg/mL in the data set with Enterobacter aerogenes; > 125 µg/mL in the data set on Morganella morganii; > 125 µg/mL with C. freundii (Citrobacter freundii); 21 µg/mL (≈ 78.4 µM) against Bacteroides fragilis (Bacteroides fragilis); > 125 µg/mL in the data set on Serratia marcescens; 73 µg/mL and 96 µg/mL and 85 µg/mL against S. aureus. This molecule returned an MIC against S. aureus (Staphylococcus aureus) of 100 µg/mL (≈ 374 µM).

Regarding `CC1(C)[C@H](C(=O)O)N2C(=O)C[C@H]2S1(=O)=O` [CP-45,899, Penicillanic acid-1,1-dioxide], the “synergism with ampicillin against B. fragilis” value in the data set with B. fragilis (Fass, Abstract No. 605, 1980) is “highly synergistic”.

Regarding `CC(C)(O/N=C(\C(=O)N[C@@H]1C(=O)N2C(C(=O)[O-])=C(C[n+]3ccccc3)CS[C@H]12)c1csc(N)n1)C(=O)O` [Ceftazidime, reference compound], the “activity against B. fragilis” value in the data set on B. fragilis (Wise et al. 1980) is recorded as “low activity”. Besides, the MIC turned out to be 8 µg/mL (≈ 14.6 µM) against P. aeruginosa; 0.063 µg/mL (≈ 0.115 µM) in the data set with Proteus vulgaris; 0.04 µg/mL in the data set with Clostridium perfringens (setting [2]); 0.7 µg/mL in the data set on Clostridium perfringens (setting [3]); 3.3 µg/mL in the data set with Clostridium perfringens (setting [4]); 2 µg/mL (≈ 3.66 µM) in the data set on Clostridium perfringens (setting [5]). For the same molecule, the MIC is 5.7 µg/mL (≈ 10.4 µM) in the data set with Clostridium perfringens (setting [6]); 0.11 µg/mL (≈ 0.201 µM) against Clostridium perfringens (setting [7]); 0.1 µg/mL (≈ 0.183 µM) in the data set with Clostridium perfringens (setting [8]); 63 µg/mL (≈ 115 µM) in the data set on C. freundii; 8.6 µg/mL and 9.7 µg/mL against S. aureus; 8 µg/mL (≈ 14.6 µM) in the data set with S. aureus (Staphylococcus aureus). For the same molecule, the “susceptibility of Bacteroides fragilis strains” value with Bacteroides fragilis is on record as “resistant”.
